Literature values, collected in patent publication US4970081A, “Controlled-release, low-dose aspirin formulation and method of treating vascular occlusive disease therewith” (Sterling Drug Inc., priority 1989, dated 1990).

Columns and labels:
[1] = prior art dosage forms
[2] = test system: endothelial cyclooxygenase; details: at the doses given in most clinical trials
[3] = test system: vascular occlusive events; details: oral aspirin, patients
prostacyclin (PC) = details: 1 mg every 30 minutes for 10 hours
thromboxane B2 (TX) = details: 1 mg every 30 minutes for 10 hours; at 10 hours
[4] = test system: cyclooxygenase in platelets; details: by acetylating cyclooxygenase in platelets

Row | release rate [1] [mg per hour] | Structure (SMILES) | effect on endothelial cyclooxygenase [2] | protection from vascular occlusive events [3] | urinary PC (prostacyclin (PC)) | decrease in serum TX (thromboxane B2 (TX)) [%] | effect on platelet adhesiveness [4]
1 | 4.5 | Nc1ccc(S(N)(=O)=O)cc1 [Sulfanilamide] |  |  |  |  | 
2 |  | CC(=O)Oc1ccccc1C(=O)O [aspirin] | inhibits endothelial cyclooxygenase | statistically significant protection | unaltered | 66 | significantly decreases platelet adhesiveness
